# According to patent US20240067685A1, “HIDDEN ANTIBIOTICS IN THE HUMAN PROTEOME” (priority 2022, published 2024):
# No end group written: not given here.
# What was measured:
# [1] = tested on: Klebsiella pneumoniae ATCC 700603; format: cell-based; details: ATCC 700603, 16 h
# Procedure: (§1) Antimicrobial activity of peptides upon pre-incubation in 10% serum. The antimicrobial activity of r(P)ApoBS^Pro and (ri)-r(P)ApoBS^Pro was evaluated against four bacterial strains upon pre-incubation in 10% FBS (fetal bovine serum, Microgem Lab, Cat. 51860, Italy). All the peptides were incubated for 1 h or 16 h in serum at 37° C. (water bath) prior to MIC value determination by standard protocols. ^20 Experiments were carried out in triplicate for each peptide.
# [2] = tested on: Acinetobacter baumannii ATCC 17878; format: cell-based; details: ATCC 17878, 16 h
# Procedure: as §1
# [3] = tested on: Staphylococcus aureus ATCC 12600; format: cell-based; details: ATCC 12600, 16 h
# Procedure: as §1
# [4] = in vitro; details: 25% fetal bovine serum
# Procedure: To determine its proteolytic stability, it was assessed whether (ri)-r(P)ApoBS^Pro was less susceptible to serum proteases compared to its parent peptide r(P)ApoBS^Pro.
# Stability assay. The resistance to enzymatic degradation assay was performed according to the method described by Powell et al. ^72 Briefly, peptides at 2 mg mL^−1 were exposed to a solution of 25% fetal bovine serum in water. Aliquots were collected after 0.5, 1, 2, and 4 h and 10 μL of trifluoroacetic acid was added to them while the samples were on ice for 10 min. The enzymatic degradation of peptides was followed by reverse-phase high performance liquid chromatography coupled to mass spectrometry (RP-HPLC/ESI-MS). The percentage of remaining peptide was calculated by integrating the area under the curve related to the peptide at time point zero.
# where AUCX is the area under the curve of the peak related to the peptide after t h (t=0.5, 1, 2, and 4 h), and AUC0 is the area under the curve of the peak related to the peptide at the beginning of the experiment. Three independent experimental replicates were performed, as previously described. ^73
# [5] = tested on: E. faecalis ATCC 29212
# Procedure: (§2) Antimicrobial activity. The antimicrobial activity of ApoB-derived encrypted peptides was assessed against a panel of skin pathogens, such as S. epidermidis ATCC 35984, S. aureus ATCC 12600, A. baumannii ATCC 17878, K. pneumoniae ATCC 700603, S. aureus MRSA (WK7-2), E. faecalis ATCC 29212 and P. aeruginosa PAO1 by using the broth microdilution method. ^20 Bacteria were grown to mid-logarithmic phase in MHB at 37° C. […] Following incubation over-night, each sample was diluted, plated on TSA, and incubated at 37° C. for 24 h to count the number of colonies. All experiments were performed in three independent replicates.
# [6] = tested on: P. aeruginosa wild-type PAO1
# Procedure: as §2
# [7] = tested on: S. aureus MRSA (WKZ-2)
# Procedure: as §2
# [8] = in vitro; format: cell-based; details: human
# Procedure: Cytokine-mediated immunogenicity is one potential side effect of peptide therapeutics as it can lead to cytotoxic effects and allergic responses. ^21,45 To determine whether the peptides exerted any toxic effects against eukaryotic cells and to verify their biocompatibility towards skin cell cultures, dose-response and time-course 3-(4, 5-dimethylthiazolyl-2)-2,5-diphenyltetrazolium bromide (MTT) and lactate dehydrogenase (LDH) cytotoxicity assays were performed against both human dermal fibroblasts (HDF) and human epidermoid carcinoma cell (A431) lines. Due to their cationic nature, most AMPs preferentially interact with negatively charged membranes, such as those of bacteria. […] To evaluate whether peptides exert cytostatic or cytotoxic effects through membrane damage, LDH release in culture medium was detected as a biomarker of membrane damage. ^50 Thus, human dermal fibroblasts (HDF) and human epidermoid carcinoma cells (A431) were treated with each peptide at a concentration of 10 and 20 μmol L^−1 for 72 h. No significant LDH release was detected, thus indicating no damage to eukaryotic cell membranes caused by exposure to the peptides (FIG. 7C).
# Eukaryotic cell culture and cytotoxicity assays. […] Cell viability was expressed as means of the percentage values compared to control untreated cells. […]
# [9] = tested on: K. pneumoniae ATCC 700603; assay: microbe, parasite or virus in culture; details: ATCC 700603
# Procedure: as §2
# [10] = tested on: S. epidermidis ATCC 35984; assay: microbe, parasite or virus in culture; details: ATCC 35984
# Procedure: as §2
# [11] = tested on: A. baumannii ATCC 17878; assay: microbe, parasite or virus in culture; details: ATCC 17878
# Procedure: as §2
# [12] = tested on: S. aureus ATCC 12600; assay: microbe, parasite or virus in culture; details: ATCC 12600
# Procedure: as §2
sequence,measurement,setting,value
PHVALKPGKLKFIIPSPKRPVKLLSG [r(P)ApoBS^Pro],MIC upon incubation in serum,[1],> 80 µM
same,MIC upon incubation in serum,[2],> 80 µM
same,MIC upon incubation in serum,[3],> 80 µM
same,stability in the presence of serum,[4],degraded within minutes
same,exposure time after which peptide degraded,[4]; RP-HPLC/ESI-MS,30 min
same,MIC,[5],20 µM
same,MIC,[6],10 µM
same,MIC,[7],10 µM
same,cytotoxicity at 24 h,[8],30%
same,MIC,[9],5 µM
same,MIC,[10],10 µM
same,MIC,[11],5 µM
same,MIC,[12],20 µM
